Reference: US8609836B2, “4-aryl-2-anilino-pyrimidines” (Janssen Pharmaceutica NV, priority 2008, dated 2013)

How the values were obtained:
H1299 = test: Cellular proliferation assay (Alamar blue), H1299; assay type: cell-based; conditions: Homo sapiens, NCI-H1299; 10% FCS; 72 hours with compound; Alamar blue 4 h
How it was run: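 This proliferation assay on NCI-H1299 cells used an initial 24-hour compound-free incubation after seeding, followed by 72 hours of compound treatment with 10% FCS serum at 37° C. and 5% (v/v) CO2. Viable cells were quantified by a 4 h Alamar blue incubation and fluorescent plate reading at 544 nm/590 nm, and effects were expressed relative to control cells.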

PLK1 T210D (h) = PLK1 T210D (h) (Homo sapiens, UniProt P53350, T210D); test: PLK1 human kinase inhibition, SPA; assay type: biochemical; conditions: read-out: PLK1 pIC50 (converted)
How it was run: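 Radiometric SPA with PLK1 T210D (0.125 ng/ml) in 50 mM Hepes pH 8.0, 2 mM MnCl2, 1 mM DTT, 2 μM biotinylated peptide, 0.1 μM ATP plus 2 nM [γ-33P]ATP. 40 min at room temperature, EDTA stop. Phosphorylated substrate captured on streptavidin PVT beads, scintillation imaged.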

GSK3β (h) = GSK3β (h) (Homo sapiens, UniProt P49841); test: GSK-3β human kinase inhibition, SPA; assay type: biochemical; conditions: read-out: GSK3b pIC50 (converted)
How it was run: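 Scintillation proximity assay: GSK3β (1 μg/ml) with 1 μM biotinylated peptide, 1 μM ATP plus [γ-33P]ATP in Tris pH 7.4, MgCl2, DTT. 60 min at room temperature, stopped with EDTA and streptavidin PVT beads; phosphorylation read by Leadseeker imaging.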

A2780 = test: Cellular proliferation assay (Alamar blue), A2780; assay type: cell-based; conditions: Homo sapiens, 10% FCS, 72 hours with compound, Alamar blue 24 h, read-out: A2780 (cellular proliferation assay, Table 4) (converted)
How it was run: (§1)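 24 h seeding without compound, 10% FCS, 37° C/5% CO2; 72 h compound; Alamar blue (resazurin 9 μg/ml, ferro-/ferricyanide 90 μM) 4 h HCT-116, 6 h U87-MG, 24 h A2780/MDA-MB-231; fluorescence 544/590 nm vs control cells.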

CDK1/CyclinB (h) = CDK1/CyclinB (h) (Homo sapiens, UniProt P06493); test: CDK1/CyclinB human kinase inhibition, Invitrogen's FRET assay (Z'lyte); assay type: biochemical; conditions: read-out: CDK1 pIC50 (converted)
How it was run: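 Z'lyte FRET assay: human CDK1/CyclinB (0.2 μg/ml) with 2 μM Ser/Thr peptide 12 and 10 μM ATP in 50 mM Hepes pH 7.5, MgCl2, EGTA, Brij-35, 60 min at room temperature. Protease development 60 min, then emission ratio 460/538 nm read with excitation at 390 nm.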

PLK3 (h) = PLK3 (h) (Homo sapiens, UniProt Q9H4B4); test: PLK3 human kinase inhibition, SPA; assay type: biochemical; conditions: read-out: PLK3 pIC50 (converted)
How it was run: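 SPA: PLK3 (h) at 30 μg/ml with 2 μM biotinylated peptide, 0.1 μM ATP plus 2 nM [γ-33P]ATP in 50 mM Hepes pH 8.0, 2 mM MnCl2 and 1 mM DTT. Incubated 20 min at room temperature, then stopped with EDTA and streptavidin PVT beads. Scintillation imaged on Leadseeker.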

U87-MG = test: Cellular proliferation assay (Alamar blue), U87-MG; assay type: cell-based; conditions: Homo sapiens, U-87 MG; 10% FCS; 72 hours with compound; Alamar blue 6 h; read-out: U87-MG (cellular proliferation assay, Table 4) (converted)
How it was run: as §1

AuroraB (h) = AuroraB (h) (Homo sapiens, UniProt Q96GD4); test: Aurora-B human kinase inhibition, SPA; assay type: biochemical; conditions: read-out: AuroraB pIC50 (converted)
How it was run: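 SPA with biotinylated peptide (3 μM) in 60 mM Hepes pH 7.5, Mg/Mn 3 mM each, 0.5 μM ATP plus [γ-33P]ATP, AuroraB at 0.5 μg/ml. The reaction runs 60 min at room temperature and is stopped with EDTA and streptavidin PVT beads. 33P-substrate is read by scintillation imaging.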

HCT-116 = test: Cellular proliferation assay (Alamar blue), HCT-116; assay type: cell-based; conditions: Homo sapiens, 10% FCS, 72 hours with compound, Alamar blue 4 h
How it was run: as §1

Chain of AuroraB (h) (Q96GD4 whole entry): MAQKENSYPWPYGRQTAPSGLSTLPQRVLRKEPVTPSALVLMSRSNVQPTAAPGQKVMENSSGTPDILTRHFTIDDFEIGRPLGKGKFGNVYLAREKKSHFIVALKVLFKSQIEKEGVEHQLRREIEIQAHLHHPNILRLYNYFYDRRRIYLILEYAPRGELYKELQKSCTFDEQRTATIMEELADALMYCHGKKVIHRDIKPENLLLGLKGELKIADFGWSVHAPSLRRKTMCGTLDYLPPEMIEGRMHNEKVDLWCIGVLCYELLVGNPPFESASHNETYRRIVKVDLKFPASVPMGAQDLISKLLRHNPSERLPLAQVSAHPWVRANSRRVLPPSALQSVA
Chain of CDK1/CyclinB (h) (P06493 whole entry): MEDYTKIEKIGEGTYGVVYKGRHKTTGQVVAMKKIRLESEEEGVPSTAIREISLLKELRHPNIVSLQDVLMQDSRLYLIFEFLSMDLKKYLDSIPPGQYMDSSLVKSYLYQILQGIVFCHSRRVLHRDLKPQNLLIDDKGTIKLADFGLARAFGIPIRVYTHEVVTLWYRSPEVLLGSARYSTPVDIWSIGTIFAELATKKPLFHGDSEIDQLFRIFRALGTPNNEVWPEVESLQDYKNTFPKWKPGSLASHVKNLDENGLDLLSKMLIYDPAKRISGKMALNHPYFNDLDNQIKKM
Chain of CDK1/CyclinB (h) (P14635 whole entry partner): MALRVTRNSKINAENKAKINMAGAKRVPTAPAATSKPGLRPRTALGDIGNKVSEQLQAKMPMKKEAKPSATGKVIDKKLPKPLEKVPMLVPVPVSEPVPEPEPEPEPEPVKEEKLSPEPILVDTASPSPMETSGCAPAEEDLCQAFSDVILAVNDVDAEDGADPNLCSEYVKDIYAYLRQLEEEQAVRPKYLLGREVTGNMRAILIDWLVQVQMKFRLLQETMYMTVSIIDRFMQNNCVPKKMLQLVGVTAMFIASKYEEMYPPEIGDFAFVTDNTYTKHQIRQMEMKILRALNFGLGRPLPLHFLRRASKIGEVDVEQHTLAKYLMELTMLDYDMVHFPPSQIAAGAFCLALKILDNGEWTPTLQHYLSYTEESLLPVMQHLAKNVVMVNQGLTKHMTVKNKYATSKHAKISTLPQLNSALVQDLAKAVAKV
Chain of PLK1 T210D (h) (P53350 whole entry T210D): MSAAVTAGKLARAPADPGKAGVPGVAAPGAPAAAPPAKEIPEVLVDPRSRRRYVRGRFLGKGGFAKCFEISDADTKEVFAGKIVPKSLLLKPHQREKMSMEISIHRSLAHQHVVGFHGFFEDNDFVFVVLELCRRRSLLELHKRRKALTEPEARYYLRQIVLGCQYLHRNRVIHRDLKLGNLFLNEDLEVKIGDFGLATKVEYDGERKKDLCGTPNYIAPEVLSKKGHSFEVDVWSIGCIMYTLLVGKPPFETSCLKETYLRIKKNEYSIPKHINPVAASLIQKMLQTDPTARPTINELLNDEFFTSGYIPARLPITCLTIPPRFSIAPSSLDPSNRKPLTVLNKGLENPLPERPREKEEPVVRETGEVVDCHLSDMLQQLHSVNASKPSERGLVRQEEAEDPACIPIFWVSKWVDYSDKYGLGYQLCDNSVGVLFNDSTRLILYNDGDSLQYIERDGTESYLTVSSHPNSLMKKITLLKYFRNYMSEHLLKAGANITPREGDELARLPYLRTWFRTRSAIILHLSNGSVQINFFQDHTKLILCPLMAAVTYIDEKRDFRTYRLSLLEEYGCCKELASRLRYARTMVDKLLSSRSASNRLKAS
Chain of PLK3 (h) (Q9H4B4 whole entry): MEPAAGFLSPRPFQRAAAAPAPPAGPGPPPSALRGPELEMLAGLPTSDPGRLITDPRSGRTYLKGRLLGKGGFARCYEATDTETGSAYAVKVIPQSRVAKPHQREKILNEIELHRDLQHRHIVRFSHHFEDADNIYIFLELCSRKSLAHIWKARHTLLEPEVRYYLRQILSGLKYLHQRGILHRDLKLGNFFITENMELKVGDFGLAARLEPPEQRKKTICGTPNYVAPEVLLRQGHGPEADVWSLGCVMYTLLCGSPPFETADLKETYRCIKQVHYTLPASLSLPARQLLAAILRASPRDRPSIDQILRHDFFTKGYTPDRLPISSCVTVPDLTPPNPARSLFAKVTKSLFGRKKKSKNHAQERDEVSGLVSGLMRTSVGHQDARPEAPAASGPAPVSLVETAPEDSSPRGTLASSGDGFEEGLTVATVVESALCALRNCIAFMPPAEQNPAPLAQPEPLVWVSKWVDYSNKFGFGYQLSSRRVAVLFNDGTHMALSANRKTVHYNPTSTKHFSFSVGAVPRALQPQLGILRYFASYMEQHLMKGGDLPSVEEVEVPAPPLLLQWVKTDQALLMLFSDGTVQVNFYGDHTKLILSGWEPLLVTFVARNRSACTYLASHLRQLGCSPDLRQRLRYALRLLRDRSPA
Chain of GSK3β (h) (P49841 whole entry): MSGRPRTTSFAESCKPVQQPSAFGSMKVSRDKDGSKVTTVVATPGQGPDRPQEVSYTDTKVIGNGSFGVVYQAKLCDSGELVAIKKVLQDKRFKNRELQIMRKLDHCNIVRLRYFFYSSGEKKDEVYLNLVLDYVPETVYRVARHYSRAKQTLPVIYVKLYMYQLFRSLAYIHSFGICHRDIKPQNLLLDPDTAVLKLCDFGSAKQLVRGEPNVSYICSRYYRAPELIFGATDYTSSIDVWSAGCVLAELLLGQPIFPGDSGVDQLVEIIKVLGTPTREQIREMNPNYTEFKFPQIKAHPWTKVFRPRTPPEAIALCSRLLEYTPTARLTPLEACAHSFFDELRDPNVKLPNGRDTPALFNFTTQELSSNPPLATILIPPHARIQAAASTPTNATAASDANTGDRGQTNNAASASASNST

What does the source list for CN1CCCNC(=O)[C@H](CO)NCc2cc(cc(N3CCOCC3)c2)Nc2nccc(n2)-c2ccc(cc2)C1 [Compound 10]?
IC50 (H1299): > 10 µM; IC50 (PLK1 T210D (h)): > 10 µM; IC50 (GSK3β (h)): ~10 µM; IC50 (A2780): > 10 µM; IC50 (CDK1/CyclinB (h)): > 10 µM; IC50 (PLK3 (h)): > 10 µM; IC50 (U87-MG): > 10 µM; IC50 (AuroraB (h)): 9.33 µM; IC50 (HCT-116): > 10 µM

Which results are given for CN1CCNC(=O)[C@@H]2CCCN2Cc2cc(Br)cc(c2)Nc2nccc(n2)-c2ccc(cc2)C1 [Compound 155]?
IC50 (H1299): > 10 µM; IC50 (PLK1 T210D (h)): > 10 µM; IC50 (GSK3β (h)): 2.34 µM; IC50 (A2780): > 10 µM; IC50 (CDK1/CyclinB (h)): > 10 µM; IC50 (PLK3 (h)): > 10 µM; IC50 (U87-MG): > 10 µM; IC50 (AuroraB (h)): > 10 µM; IC50 (HCT-116): > 10 µM

Which results are given for CN1CCCNC(=O)[C@@H]2CCCN2Cc2cc(cc(N3CCOCC3)c2)Nc2nccc(n2)-c2ccc(cc2)C1 [Compound 16]?
IC50 (H1299): > 10 µM; IC50 (PLK1 T210D (h)): > 10 µM; IC50 (GSK3β (h)): > 10 µM; IC50 (A2780): 9.55 µM; IC50 (CDK1/CyclinB (h)): > 10 µM; IC50 (PLK3 (h)): > 10 µM; IC50 (U87-MG): 8.13 µM; IC50 (AuroraB (h)): > 10 µM; IC50 (HCT-116): > 10 µM

Which results are given for CN(C)Cc1cc2cc(c1)Nc1nccc(n1)-c1cccc(c1)CNC(=O)[C@@H]1CCCN1C2 [Compound 30]?
IC50 (H1299): 0.191 µM; IC50 (PLK1 T210D (h)): > 10 µM; IC50 (GSK3β (h)): 0.024 µM; IC50 (A2780): 0.174 µM; IC50 (CDK1/CyclinB (h)): 0.269 µM; IC50 (PLK3 (h)): > 10 µM; IC50 (U87-MG): 0.145 µM; IC50 (AuroraB (h)): > 10 µM; IC50 (HCT-116): 0.107 µM

Which IC50 (H1299) does the source give for O=C1NCCNCc2ccc(cc2)-c2ccnc(n2)Nc2ccc(N3CCOCC3)c(c2)CN[C@H]1CO [Compound 115] here?
Its IC50 is greater than 10 µM.

What about the IC50 (PLK1 T210D (h)) of the same compound?
The IC50 was greater than 10 µM.

What about the IC50 (GSK3β (h)) of the same compound?
Its IC50 is greater than 10 µM.

What about the IC50 (A2780) of the same compound?
Its IC50 is greater than 10 µM.

What about the IC50 (CDK1/CyclinB (h)) of the same compound?
Its IC50 is greater than 10 µM.

And the IC50 (PLK3 (h))?
Its IC50 is greater than 10 µM.

And the IC50 (U87-MG)?
The IC50 was greater than 10 µM.

What about the IC50 (AuroraB (h)) of the same compound?
Its IC50 is greater than 10 µM.

What about the IC50 (HCT-116) of the same compound?
Its IC50 is greater than 10 µM.

What does the source list for O=C1NCCCOc2ccc(cc2)-c2ccnc(n2)Nc2ccc(N3CCOCC3)c(c2)CN2CCC1CC2 [Compound 92]?
IC50 (H1299): 0.832 µM; IC50 (PLK1 T210D (h)): > 10 µM; IC50 (GSK3β (h)): 1.32 µM; IC50 (A2780): 0.525 µM; IC50 (CDK1/CyclinB (h)): 1.02 µM; IC50 (PLK3 (h)): > 10 µM; IC50 (U87-MG): 0.178 µM; IC50 (AuroraB (h)): > 10 µM; IC50 (HCT-116): 0.309 µM

CN(C)C(=O)c1ccc2cc1CN1CCC[C@H]1C(=O)NCc1cccc(c1)-c1ccnc(n1)N2 [Compound 24] was tested. Which IC50 (H1299) did it give?
The IC50 was greater than 10 µM.

What about the IC50 (PLK1 T210D (h)) of the same compound?
Its IC50 is greater than 10 µM.

And the IC50 (GSK3β (h))?
The IC50 was 0.0871 µM.

And the IC50 (A2780)?
The IC50 was 5.89 µM.

What about the IC50 (CDK1/CyclinB (h)) of the same compound?
Its IC50 is greater than 10 µM.

What about the IC50 (PLK3 (h)) of the same compound?
The IC50 was greater than 10 µM.

And the IC50 (U87-MG)?
The IC50 was 4.27 µM.

And the IC50 (AuroraB (h))?
The IC50 was greater than 10 µM.

What about the IC50 (HCT-116) of the same compound?
Its IC50 is 3.8 µM.

With C[C@@H]1NCc2cc(ccc2N2CCOCC2)Nc2nccc(n2)-c2cccc(c2)OCCCNC1=O [Compound 88] as the compound, how does the IC50 (H1299) read?
Its IC50 is 8.13 µM.

And the IC50 (PLK1 T210D (h))?
The IC50 was greater than 10 µM.

What about the IC50 (GSK3β (h)) of the same compound?
Its IC50 is 0.195 µM.

What about the IC50 (A2780) of the same compound?
Its IC50 is 3.39 µM.

And the IC50 (CDK1/CyclinB (h))?
The IC50 was 4.79 µM.

What about the IC50 (PLK3 (h)) of the same compound?
The IC50 was greater than 10 µM.

And the IC50 (U87-MG)?
Its IC50 is 3.55 µM.

What about the IC50 (AuroraB (h)) of the same compound?
Its IC50 is 6.46 µM.

And the IC50 (HCT-116)?
The IC50 was 1.62 µM.

What does the source list for COc1ccc2cc1CN(C)CCCNC(=O)[C@@H]1CCCN1Cc1cc(cc(N3CCOCC3)c1)Nc1nccc-2n1 [Compound 179]?
IC50 (H1299): > 10 µM; IC50 (PLK1 T210D (h)): > 10 µM; IC50 (GSK3β (h)): > 10 µM; IC50 (A2780): > 10 µM; IC50 (CDK1/CyclinB (h)): > 10 µM; IC50 (PLK3 (h)): > 10 µM; IC50 (U87-MG): > 10 µM; IC50 (AuroraB (h)): > 10 µM; IC50 (HCT-116): > 10 µM

Which IC50 (H1299) does the source give for O=C1NCCNc2cc(ccn2)-c2ccnc(n2)Nc2ccc(N3CCOCC3)c(c2)CN2CCCC12 (stereo not drawn) [Compound 161] here?
Its IC50 is 10 µM.

And the IC50 (PLK1 T210D (h))?
Its IC50 is greater than 10 µM.

And the IC50 (GSK3β (h))?
The IC50 was 0.182 µM.

What about the IC50 (A2780) of the same compound?
Its IC50 is 9.77 µM.

What about the IC50 (CDK1/CyclinB (h)) of the same compound?
Its IC50 is 5.13 µM.

What about the IC50 (PLK3 (h)) of the same compound?
Its IC50 is greater than 10 µM.

And the IC50 (U87-MG)?
Its IC50 is greater than 10 µM.

What about the IC50 (AuroraB (h)) of the same compound?
The IC50 was 6.17 µM.

And the IC50 (HCT-116)?
The IC50 was 4.68 µM.

With COc1ccc2cc1CN(C)CCNC(=O)CN1CCN(CC1)Cc1cc(cc(NC(C)C)c1)Nc1nccc-2n1 [Compound 142] as the compound, how does the IC50 (H1299) read?
Its IC50 is greater than 10 µM.

And the IC50 (PLK1 T210D (h))?
The IC50 was greater than 10 µM.

And the IC50 (GSK3β (h))?
Its IC50 is greater than 10 µM.

And the IC50 (A2780)?
The IC50 was greater than 10 µM.

And the IC50 (CDK1/CyclinB (h))?
The IC50 was 8.51 µM.

And the IC50 (PLK3 (h))?
The IC50 was greater than 10 µM.

What about the IC50 (U87-MG) of the same compound?
Its IC50 is 5.62 µM.

What about the IC50 (AuroraB (h)) of the same compound?
Its IC50 is greater than 10 µM.

And the IC50 (HCT-116)?
The IC50 was greater than 10 µM.
